In PubChem BioAssay (NCI):
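Protocol summary: plate cells (96-well), add compound at 5 concentrations, incubate 48 h, interpolate endpoints linearly. GI50 marks 50% less growth. The concentration for full growth arrest is given as TGI.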

Experiments:
Assay in all cases: growth of human tumour cells (NCI), 48 h
786-0 renal = tested on: 786-0 renal
A498 renal = tested on: A498 renal
A549 NSCLC = tested on: A549 NSCLC
ACHN renal = tested on: ACHN renal
BT-549 breast = tested on: BT-549 breast
CAKI-1 renal = tested on: CAKI-1 renal
CCRF-CEM leukemia = tested on: CCRF-CEM leukemia
COLO 205 colon = tested on: COLO 205 colon
DU-145 prostate = tested on: DU-145 prostate
EKVX NSCLC = tested on: EKVX NSCLC
HCC-2998 colon = tested on: HCC-2998 colon
HCT-116 colon = tested on: HCT-116 colon
HCT-15 colon = tested on: HCT-15 colon
HL-60(TB) leukemia = tested on: HL-60(TB) leukemia
HOP-62 NSCLC = tested on: HOP-62 NSCLC
HS 578T breast = tested on: HS 578T breast
HT29 colon = tested on: HT29 colon
IGROV1 ovarian = tested on: IGROV1 ovarian
K-562 leukemia = tested on: K-562 leukemia
KM12 colon = tested on: KM12 colon
LOX IMVI melanoma = tested on: LOX IMVI melanoma
M14 melanoma = tested on: M14 melanoma
MALME-3M melanoma = tested on: MALME-3M melanoma
MCF7 breast = tested on: MCF7 breast
MDA-MB-231 breast = tested on: MDA-MB-231 breast
MDA-MB-435 = tested on: MDA-MB-435
MOLT-4 leukemia = tested on: MOLT-4 leukemia
NCI-H23 lung = tested on: NCI-H23 lung
NCI-H460 lung = tested on: NCI-H460 lung
NCI-H522 lung = tested on: NCI-H522 lung
NCI/ADR-RES ovarian = tested on: NCI/ADR-RES ovarian
OVCAR-3 ovarian = tested on: OVCAR-3 ovarian
OVCAR-4 ovarian = tested on: OVCAR-4 ovarian
OVCAR-5 ovarian = tested on: OVCAR-5 ovarian
OVCAR-8 ovarian = tested on: OVCAR-8 ovarian
PC-3 prostate = tested on: PC-3 prostate
RPMI-8226 leukemia = tested on: RPMI-8226 leukemia
RXF 393 renal = tested on: RXF 393 renal
SF-268 CNS = tested on: SF-268 CNS
SF-295 CNS = tested on: SF-295 CNS
SF-539 CNS = tested on: SF-539 CNS
SK-MEL-2 melanoma = tested on: SK-MEL-2 melanoma
SK-MEL-28 melanoma = tested on: SK-MEL-28 melanoma
SK-MEL-5 melanoma = tested on: SK-MEL-5 melanoma
SK-OV-3 ovarian = tested on: SK-OV-3 ovarian
SN12C renal = tested on: SN12C renal
SNB-19 CNS = tested on: SNB-19 CNS
SNB-75 CNS = tested on: SNB-75 CNS
SR leukemia = tested on: SR leukemia
SW-620 colon = tested on: SW-620 colon
T-47D breast = tested on: T-47D breast
TK-10 renal = tested on: TK-10 renal
U251 CNS = tested on: U251 CNS
UACC-257 melanoma = tested on: UACC-257 melanoma
UACC-62 melanoma = tested on: UACC-62 melanoma
UO-31 renal = tested on: UO-31 renal

In the case of `N#Cc1cc(-c2ccccc2)[nH]c1-c1nccc2ccccc12`, the GI50 (786-0 renal) was 26.9 µM, the TGI (786-0 renal) was > 100 µM and the GI50 (A498 renal) was 26.3 µM. The TGI (A498 renal) was > 100 µM, the GI50 (A549 NSCLC) was 13.9 µM and the TGI (A549 NSCLC) was > 100 µM. For the same compound, the GI50 (ACHN renal) was 18.5 µM, the TGI (ACHN renal) was > 100 µM and the GI50 (BT-549 breast) was 10.1 µM. The TGI (BT-549 breast) was > 100 µM, the GI50 (CAKI-1 renal) was 12.5 µM and the TGI (CAKI-1 renal) was > 100 µM. The GI50 (CCRF-CEM leukemia) was 14 µM, the TGI (CCRF-CEM leukemia) was > 100 µM and the GI50 (COLO 205 colon) was 11.7 µM. The TGI (COLO 205 colon) was 33.2 µM, the GI50 (DU-145 prostate) was 32.3 µM and the TGI (DU-145 prostate) was > 100 µM. For the same compound, the GI50 (EKVX NSCLC) was 5.86 µM, the TGI (EKVX NSCLC) was > 100 µM and the GI50 (HCC-2998 colon) was 18.9 µM. The TGI (HCC-2998 colon) was > 100 µM, the GI50 (HCT-116 colon) was 9.13 µM and the TGI (HCT-116 colon) was > 100 µM. The GI50 (HCT-15 colon) was 20.6 µM, the TGI (HCT-15 colon) was > 100 µM and the GI50 (HL-60(TB) leukemia) was 8.52 µM. The TGI (HL-60(TB) leukemia) was 82.6 µM, the GI50 (HOP-62 NSCLC) was 29 µM and the TGI (HOP-62 NSCLC) was > 100 µM. The GI50 (HS 578T breast) was 37.6 µM, the TGI (HS 578T breast) was > 100 µM and the GI50 (HT29 colon) was 30.5 µM. The TGI (HT29 colon) was > 100 µM, the GI50 (IGROV1 ovarian) was 23.3 µM and the TGI (IGROV1 ovarian) was > 100 µM. The GI50 (K-562 leukemia) was 6.04 µM, the TGI (K-562 leukemia) was > 100 µM and the GI50 (KM12 colon) was 20.7 µM. The TGI (KM12 colon) was > 100 µM, the GI50 (LOX IMVI melanoma) was 15.6 µM and the TGI (LOX IMVI melanoma) was > 100 µM. For the same compound, the GI50 (M14 melanoma) was 14.9 µM, the TGI (M14 melanoma) was 84.7 µM and the GI50 (MALME-3M melanoma) was 13 µM. The TGI (MALME-3M melanoma) was 84.5 µM, the GI50 (MCF7 breast) was 5.76 µM and the TGI (MCF7 breast) was > 100 µM. For the same compound, the GI50 (MDA-MB-231 breast) was 19.4 µM, the TGI (MDA-MB-231 breast) was > 100 µM and the GI50 (MDA-MB-435) was 10.5 µM. It also gave a TGI (MDA-MB-435) of 78.1 µM, a GI50 (MOLT-4 leukemia) of 7.15 µM and a TGI (MOLT-4 leukemia) of 52.2 µM. For the same compound, the GI50 (NCI-H23 lung) was 6.31 µM, the TGI (NCI-H23 lung) was > 100 µM and the GI50 (NCI-H460 lung) was 18.1 µM. The TGI (NCI-H460 lung) was > 100 µM, the GI50 (NCI-H522 lung) was 12.4 µM and the TGI (NCI-H522 lung) was 98 µM. The GI50 (NCI/ADR-RES ovarian) was 6.44 µM, the TGI (NCI/ADR-RES ovarian) was > 100 µM and the GI50 (OVCAR-3 ovarian) was 21.9 µM. The TGI (OVCAR-3 ovarian) was > 100 µM, the GI50 (OVCAR-4 ovarian) was 3.43 µM and the TGI (OVCAR-4 ovarian) was > 100 µM. The GI50 (OVCAR-5 ovarian) was 31.7 µM, the TGI (OVCAR-5 ovarian) was > 100 µM and the GI50 (OVCAR-8 ovarian) was 22.7 µM. For the same compound, the TGI (OVCAR-8 ovarian) was > 100 µM, the GI50 (PC-3 prostate) was 11.8 µM and the TGI (PC-3 prostate) was > 100 µM. It also gave a GI50 (RPMI-8226 leukemia) of 4.35 µM, a TGI (RPMI-8226 leukemia) of 53.2 µM and a GI50 (RXF 393 renal) of 13.6 µM. For the same compound, the TGI (RXF 393 renal) was 89.1 µM, the GI50 (SF-268 CNS) was 22.6 µM and the TGI (SF-268 CNS) was > 100 µM. The GI50 (SF-295 CNS) was 7.07 µM, the TGI (SF-295 CNS) was > 100 µM and the GI50 (SF-539 CNS) was 32.7 µM. The TGI (SF-539 CNS) was > 100 µM, the GI50 (SK-MEL-2 melanoma) was 11.9 µM and the TGI (SK-MEL-2 melanoma) was 81 µM. For the same compound, the GI50 (SK-MEL-28 melanoma) was 26.5 µM, the TGI (SK-MEL-28 melanoma) was > 100 µM and the GI50 (SK-MEL-5 melanoma) was 3.58 µM. The TGI (SK-MEL-5 melanoma) was 15.2 µM, the GI50 (SK-OV-3 ovarian) was 17.8 µM and the TGI (SK-OV-3 ovarian) was > 100 µM. The GI50 (SN12C renal) was 23.9 µM, the TGI (SN12C renal) was > 100 µM and the GI50 (SNB-19 CNS) was 31.3 µM. The TGI (SNB-19 CNS) was > 100 µM, the GI50 (SNB-75 CNS) was 13.7 µM and the TGI (SNB-75 CNS) was > 100 µM. For the same compound, the GI50 (SR leukemia) was 5.72 µM, the TGI (SR leukemia) was > 100 µM and the GI50 (SW-620 colon) was 61.5 µM. The TGI (SW-620 colon) was > 100 µM, the GI50 (T-47D breast) was 3.06 µM and the TGI (T-47D breast) was 45.2 µM. The GI50 (TK-10 renal) was 25.3 µM, the TGI (TK-10 renal) was > 100 µM and the GI50 (U251 CNS) was 25.1 µM. For the same compound, the TGI (U251 CNS) was > 100 µM, the GI50 (UACC-257 melanoma) was 7.81 µM and the TGI (UACC-257 melanoma) was 60.1 µM. The GI50 (UACC-62 melanoma) was 7.36 µM, the TGI (UACC-62 melanoma) was > 100 µM and the GI50 (UO-31 renal) was 6.81 µM. For the same compound, the TGI (UO-31 renal) was > 100 µM.
